Assay results as given in the NIST ThermoML archive (doi:10.1016/j.fluid.2015.06.015).
± gives the expanded uncertainty stated by the source.

Columns and labels:
[1] = DTA; for Normal melting temperature: Crystal 1
[2] = Molar enthalpy of transition or fusion; details: Crystal 1; DSC

Normal melting temperature [1] [°C] | Triple point temperature ([1]; Crystal 2) [K] | Molar enthalpy of transition or fusion [2] [kcal/mol] | Triple point temperature ([1]; Crystal 3) [K] | SMILES
38.0 ± 0.53 | 310.06 ± 0.78 | 10.9 ± 0.454 |  | CCCCCCCCCCCCCCO [1-tetradecanol]
6.96 ± 0.56 | 275.94 ± 0.68 | 7.09 ± 0.43 |  | CCCCCCCCCCO [decan-1-ol]
32.33 ± 0.41 |  | 6.51 ± 0.217 |  | CCCCCCCCCC(=O)O [decanoic acid]
55.78 ± 0.5 | 327.95 ± 0.7 | 10.5 ± 0.222 |  | CCCCCCCCCCCCCC(=O)O [tetradecanoic acid]
24.38 ± 0.39 | 296.95 ± 0.39 | 9.19 ± 0.335 | 291.04 ± 0.7 | CCCCCCCCCCCCO [dodecan-1-ol]
5.42 ± 0.39 | 258.99 ± 0.66 | 27.4 ± 0.598 |  | CCCCCCCC/C=C\CCCCCCCC(=O)OCC(COC(=O)CCCCCCC/C=C\CCCCCCCC)OC(=O)CCCCCCC/C=C\CCCCCCCC [1,2,3-tri(cis-9-octadecenoyl)glycerol]
45.33 ± 1 | 317.91 ± 0.46 | 8.27 ± 0.502 |  | CCCCCCCCCCCC(=O)O [dodecanoic acid]
